One test concerns gram-negative bacteria. The note with it: cited from earlier work.
For test [1], the system named is Helicobacter pylori TN2GF4. The test is described as follows: Gastric infection in mongolian gerbils, repetitive administration. The format is in vivo. As for the experimental part: Five-week-old MON/Jms/Gbs mongolian gerbils were inoculated intragastrically with 10^7.58 CFU of Helicobacter pylori TN2GF4. Four weeks after infection, a compound of the Example 47, suspended in 0.5% methyl cellulose, was administered orally at a dose of 30 mg/kg twice daily for 2 days. The animals were killed on the day after the final treatment. Stomachs were removed and homogenized with 3 ml of brucella broth, and the bacterial count in the homogenates was determined by serial dilution and titration on modified Skirrow's plates. The plates were incubated at 37° C. for 4 days in a microaerobic atmosphere prior to counting. No detectable Helicobacter pylori in the stomach on the day after final treatment was defined as clearance. Effect of repetitive administration of a compound of the Example 47 against gastric infection caused by H. pylori TN2GF4 in MON/JmsIGbs mongolian gerbils

Test [2] deals with Helicobacter pylori (NCTC 11637). The test is described as follows: In vitro antibacterial test, agar dilution method (MIC). The note with it: NCTC11637, 96 h, 7% horse blood-Brucella agar, 37° C., 4 days, read-out: MIC (minimal inhibitory concentration). It counts as cell-based. A general note: In agar dilution the substance is mixed into plates at graded concentrations.
Test [3] relates to Helicobacter pylori TN2F4. The experiment in a line: In vivo antibacterial test in infected mice. The note with it: mice (Crj: ICR), 50 mg/kg orally twice daily for 2 days, cleared/total (%), hydrochloride. As for the experimental part: In vivo Antibacterial Test
Mice (Crj: ICR, male, aged 5 weeks) were deprived of food for 20 hours and 6.17×10^7 CFU/mouse of Helicobacter pylori TN2F4 was inoculated into the stomach. Starting 11 days after infection, 50 mg/kg of the test compound suspended in 0.5% methyl cellulose/water was adminstered orally twice. daily, in the morning and evening, for 2 consecutive days. On the day following the last dose, the stomach was isolated from the infected mouse and homogenized and a 10-fold dilution series of the homogenate was inoculated on activated charcoal-modified Skirrow medium. Cultivation was carried out microaerobically at 37° C. for 4 days and the eradication rate was determined according to growth of the bacteria.
The number of bacteria was expressed in mean±standard error and the statistical analysis was made in comparison with the control group by the Dunnett method.

[4] abbreviates: 30 mg/kg twice daily for 2 days.

Values after ≈ are worked out from the molar mass of the structure shown.

The values that follow come from patent US6423869B1, “Polyol-amino acid compounds having anti-helicobacter pylori activity” (Takeda Chemical Industries, Inc., priority 1997, dated 2002).

On to `NCC1OC(OC2C(N)CC(NC(=O)C(O)C(O)C(O)C(N)CO)C(O)C2OC2OC(CO)C(O)C2O)C(N)C(O)C1O` (stereo not shown), for which, in the test on gram-negative bacteria, the “activity against gram-negative bacteria” value was “active against gram-negative bacteria”.

For the molecule `C=CC[C@H](N)C(=O)N[C@@H](CO)[C@@H](O)[C@@H](O)[C@H](O)C(=O)N[C@@H](CC(=O)O)c1ccccc1` [Example 47, (S)-3-[(2S,3R,4R,5S)-5-((S)-2-amino-4-pentenoyl)amino-2,3,4,6-tetrahydroxyhexanoyl]amino-3-phenylpropionic acid], in test [1] (setting [4]), the “clearance attained (gerbils cleared out of total)” value is 2 out of 4 and the “number of infecting organism” value is on record as “decreased the number of infecting organism”. The “Bacterial recovery Log CFU/gastric wall Mean ± SE” value in test [1] (MON/Jms/Gbs mongolian gerbils, 30 mg/kg orally twice daily for 2 days) was 2.23 ± 0.44 Log CFU/gastric wall.

As to `CC(C)C[C@H](NC(=O)[C@@H](NC(=O)[C@@H](N)C(C)C)C(C)C)C(=O)N[C@@H](CO)[C@@H](O)[C@@H](O)[C@H](O)C(=O)N[C@@H](CC(=O)O)c1ccccc1` [HC-70I, (S)-3-[(2S,3R,4R,5S)-2,3,4,6-tetrahydroxy-5-(L-valyl-L-valyl-L-leucyl)aminohexanoyl]amino-3-phenylpropionic acid], the MIC in test [2] worked out at 0.025 µg/mL (≈ 0.0382 µM).

`CC(C)C[C@H](NC(=O)[C@@H](N)C(C)C)C(=O)N[C@@H](CO)[C@@H](O)[C@@H](O)[C@H](O)C(=O)N[C@@H](CC(=O)O)c1ccccc1` [HC-70II, (S)-3-[(2S,3R,4R,5S)-2,3,4,6-tetrahydroxy-5-(L-valyl-L-leucyl)aminohexanoyl]amino-3-phenylpropionic acid]: the MIC in test [2] was found to be 0.025 µg/mL (≈ 0.0451 µM).

In the case of `CC(C)C[C@H](NC(=O)[C@@H](N)C(C)C)C(=O)N[C@@H](CO)[C@@H](O)[C@@H](O)[C@H](O)C(=O)N[C@@H](CC(=O)O)c1ccccc1.Cl` [HC-70II.HCl, (S)-3-[(2S,3R,4R,5S)-2,3,4,6-tetrahydroxy-5-(L-valyl-L-leucyl)aminohexanoyl]amino-3-phenylpropionate hydrochloride], in test [3], the “Clearance rate (%)” value was 100%.
